How the values were obtained:
GEPCOT cells [1] = conditions: 3.0 mM EDTA in staining medium (slight excess over 2.7 mM divalent cations)
Description: In the inventors' experiments, the staining medium the inventors employed contained 3.0 mM EDTA, enough to neutralize 2.7 mM of divalent cations in the staining medium (with a small surplus). […] The inventors pre-diluted 0.5M EDTA (made from Na2H2EDTA, pH 8.0) to 77.7 mM (309 mOsm) before adding it to the staining medium.
SVZ cell preparation. SVZs from adult (8-60 week old) mice were dissected as described (Mirzadeh et al., 2010). SVZs were minced and digested with 300 μl of trypsin solution (Ca and Mg-free HBSS, 10 mM HEPES, 0.5 mM EDTA, 0.25 mg/mL trypsin (EMD Millipore), 10 μg/mL DNase I (Roche), pH 7.6) at 37° C. for 20 minutes. Digestion was quenched with three volumes of staining medium (440 ml Leibovitz L-15 medium, 50 ml water, 5 ml 1M HEPES pH 7.3-7.4, 5 ml 100× Pen-Strep, 20 ml 77.7 mM EDTA pH 8.0 [prepared from Na2H2EDTA], 1 g bovine serum albumin [Sigma A7030]) containing 100 μg/ml trypsin inhibitor (Sigma T6522) and 10 μg/ml DNase I (Roche).

adult SVZ cells = experiment: Neurosphere formation (clonogenesis) of adult SVZ cells with culture additives; format: cell-based, mouse
Description: Rock inhibitor (Y-27632) and IGF1 increase clonogenesis after sorting. The process of being sorted has a negative effect on neurosphere formation from adult SVZ cells: at the beginning of their experiments the inventors observed a 3-fold loss of activity in sorted live SVZ cells compared to crude unsorted cells. […] The inventors wondered how to sort gently to overcome the fragility of adult SVZ cells.
(§1) The mechanisms underlying these effects are unclear but may involve promotion of cell survival after sorting or repression of BMP signaling (Hsieh et al., 2004). When using both these culture additives, there was little difference between sorted live SVZ cells and an equal number of cells added to culture by pipette in terms of the numbers of neurospheres they made.
After adding 10% CEE to the culture medium, sorted cell-derived primary neurospheres were indistinguishable in size and number from neurospheres cultured from cells pipetted into culture.
(§2) The cell suspension was then filtered through a 45-micron mesh, counted on a hemocytometer, and added to culture or processed for flow cytometry. […] For adherent colony formation, Tg(Ubc-GFP) SVZ cells were co-cultured with 80-90% confluent nontransgenic neonatal SVZ-derived astrocytes isolated and passaged twice prior to the experiment. GFP fluorescence was used to assess colony formation after 12-20 days in culture.

neonatal SVZ cells = experiment: Neurosphere formation of neonatal SVZ cells with culture additive; format: cell-based, mouse; conditions: 10 μM
Description: as §1

SVZ cells = experiment: TMZ regeneration assay: total and dividing (BrdU) SVZ cells; format: in vivo, mouse
Description: (§3) All data represent mean ±s.d.

[2] = Body mass after TMZ treatment; format: in vivo, mouse; conditions: three days after TMZ, 100 mg/kg/day i.p. for 3 consecutive days
GEPCOT cells [3] = experiment: TMZ regeneration assay: GEPCOT cells per SVZ by flow cytometry; conditions: for number of unlabeled GEPCOTs per SVZ: Ascl1CreERT2 reporter mice, tamoxifen then TMZ
Description: TMZ regeneration assay. TMZ (temozolomide; Sigma T2577) was dissolved in 25% DMSO/75% 0.9% saline solution at 10 mg/ml by heating briefly to 90-100° C., then shaking and rapidly cooling. Mice were injected at 100 mg/kg/day for three consecutive days then allowed to recover for 3-90 days before analysis. Mice with enlarged spleen or thymus (sometimes present at 90 days after TMZ treatment) were excluded from analysis.
To stain SVZ cells with the combination of markers used to isolate GEPCOT or pre-GEPCOT cells, dissociated SVZ cells were centrifuged (220 g, 4 min, 4° C.) and resuspended in 100 μl staining medium per brain. Then the following antibodies were added: BV421 anti-Ter119 (Biolegend 116233, 1/100), BV421 anti-CD45 (Biolegend 103133, 1/100), APC-eFluor 780 anti-CD24 (eBioscience 47-0242-82, 1/200), 5A5 ascites (anti-PSA-NCAM; Developmental Studies Hybridoma Bank, 1/100), O4 ascites (1/200), anti-PlexinB2 (eBioscience 14-5665-82, 1/100), biotinylated anti-EGFR (R&D Systems BAF1280, 1/200), anti-Glast (Miltenyi Biotec 130-095-822, 1/10), and DAPI (50 μg/ml, 1/100). After adding antibodies, the cells were incubated on ice for 45 minutes, then washed with 2.5 ml fresh staining medium and pelleted (220 g for 4 minutes at 4° C.) and resuspended in secondary antibodies. Typically, the inventors used the following combination: APC anti-mouse IgG2a (Jackson Immunoresearch 115-135-206,1/200), PE anti-hamster IgG (Jackson Immunoresearch 127-115-160, 1/200), PE-Cy7 anti-mouse IgM (eBioscience 25-5790-82, 1/100), BV605-Streptavidin (BD Biosciences 563260, 1/200). However, when analyzing mice expressing tdTomato, the inventors used the following alternative secondary antibodies: PerCP-eFluor 710 anti-mouse IgG (eBioscience 46-4010-82, 1/100), APC anti-hamster IgG (Jackson Immunoresearch 127-135-160, 1/200), PE-Cy7 anti-mouse IgM (eBioscience 25-5790-82, 1/100), and BV605-Streptavidin (BD Biosciences 563260, 1/200). Cells were stained with secondary antibodies on ice for 45 minutes, then washed and pelleted as above, and analyzed on the FACSAria in a volume of 200 μl per brain.

NICs = experiment: TMZ regeneration assay: neurosphere-initiating cells (NICs); format: in vivo, mouse
Description: as §3, §2

[4] = three days after TMZ (100 mg/kg/day i.p., 3 days)

## O=C(O)CN(CCN(CC(=O)O)CC(=O)O)CC(=O)O [EDTA]
GEPCOT cells [1]
  effect on the yield of GEPCOT cells: 2-3 fold

## Y-27632 hydrochloride
Adult SVZ cells; 10 μM in culture medium, adult cells after sorting
  increase in neurosphere formation: approximately two-fold
Adult SVZ cells; 10 μM, adult SVZ cells pipetted into the culture medium
  effect on neurosphere formation: did not have any effect
Neonatal SVZ cells; crude neonatal SVZ cells
  effect on neurosphere formation: did not have any effect
Neonatal SVZ cells; sorted neonatal SVZ cells
  effect on neurosphere formation: did not have any effect

## IGF1: IGF-1 growth factor (R&D Systems 291-G1) added to culture medium
Adult SVZ cells; 20 ng/ml in culture medium, in addition to Y-27632
  clonogenesis after sorting: further improved clonogenesis after sorting

## Cn1nnc2c(C(N)=O)ncn2c1=O [TMZ, temozolomide]
SVZ cells; 90 days after TMZ treatment
  number of dividing SVZ cells, recovery as % of normal: 50 % of normal
SVZ cells; [4]
  reduction in the number of dividing SVZ cells, based on BrdU incorporation: 80%
  reduction in the total number of cells per SVZ: 23%
[2]
  loss of body mass as compared to before TMZ treatment: less than 3%
GEPCOT cells [3]; 16 days after TMZ treatment
  GEPCOTs recovered, % of normal levels: 32 % of normal
GEPCOT cells [3]; 90 days after TMZ treatment
  GEPCOTs recovered, % of normal levels: 55 % of normal
GEPCOT cells [3]; 3 days after TMZ
  number of unlabeled GEPCOTs per SVZ: 120±50
GEPCOT cells [3]; 35 days after TMZ
  number of unlabeled GEPCOTs per SVZ: 640±210
GEPCOT cells [3]; three days after TMZ treatment
  GEPCOTs remaining relative to saline-treated control mice: 10%
NICs; 16 days after TMZ treatment
  NICs recovered, % of normal levels: 20 % of normal
NICs; 90 days after TMZ
  NICs recovered, % of normal: 55 % of normal
NICs; three days after TMZ
  NICs remaining relative to saline-treated control mice: 0.7%

— US20170191032A1, “IDENTIFICATION AND ISOLATION OF NEURAL STEM CELLS AND NEUROSPHERE INITIATING CELLS” (The Board of Regents of the University of Texas System, priority 2014, published 2017)
